These results are taken from ChEMBL document CHEMBL1201862, “PubChem BioAssay data set” (2004).

Assay [1] in a line: microbe, parasite or virus in culture. It is filed as functional. Conditions: Mycobacterium tuberculosis.
Assay [2] can be described thus: M. tuberculosis growth inhibition, HTS (AID 449762). It is filed as functional.
For assay [3], the target named is DNA damage-inducible transcript 3 protein (Mus musculus, UniProt P35639). It is filed as functional, Cricetulus griseus.
The target in assay [4] is T1, Tyrosine-protein phosphatase non-receptor type 7 (Homo sapiens, UniProt P35236).
T1 sequence (P35236 whole entry): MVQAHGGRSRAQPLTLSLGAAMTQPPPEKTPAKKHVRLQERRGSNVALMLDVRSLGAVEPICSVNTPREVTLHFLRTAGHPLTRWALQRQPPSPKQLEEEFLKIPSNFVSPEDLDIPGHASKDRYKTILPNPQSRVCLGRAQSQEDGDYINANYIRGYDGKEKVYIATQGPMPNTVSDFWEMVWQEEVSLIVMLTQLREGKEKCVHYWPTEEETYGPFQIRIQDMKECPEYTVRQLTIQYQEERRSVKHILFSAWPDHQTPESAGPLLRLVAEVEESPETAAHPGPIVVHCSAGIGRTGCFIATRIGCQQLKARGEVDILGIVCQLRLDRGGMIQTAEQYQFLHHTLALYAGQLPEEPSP
Briefly: HePTP tyrosine phosphatase activity blockers – biochemical, absorbance, leukemia target, primary screen (AID 521). It is filed as functional.

A further assay concerns the target Large T antigen (Simian virus 40, UniProt P03070). The assay is classed as functional, Betapolyomavirus macacae.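 Note: Confirmatory-stage PubChem screen for compounds that inhibit SV40 T antigen.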
The target of a further assay is T2, Caspase-6 (Homo sapiens, UniProt P55212).
T2 sequence (P55212 whole entry): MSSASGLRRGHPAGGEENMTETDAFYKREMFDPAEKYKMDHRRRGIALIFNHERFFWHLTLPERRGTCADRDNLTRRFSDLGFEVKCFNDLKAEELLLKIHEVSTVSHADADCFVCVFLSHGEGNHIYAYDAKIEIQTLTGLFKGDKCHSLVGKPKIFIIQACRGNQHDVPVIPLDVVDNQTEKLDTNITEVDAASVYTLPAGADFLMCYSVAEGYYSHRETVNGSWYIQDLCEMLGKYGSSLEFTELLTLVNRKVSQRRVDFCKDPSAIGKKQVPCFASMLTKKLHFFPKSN
Briefly: inhibition of CASP6 peptide cleavage – biochemical, VEID-R110 fluorescence, cherry-pick, dose response (AID 720632).

The target in assay [5] is T3, Histone-lysine N-methyltransferase NSD2 (Homo sapiens, UniProt O96028).
T3 sequence (O96028 whole entry): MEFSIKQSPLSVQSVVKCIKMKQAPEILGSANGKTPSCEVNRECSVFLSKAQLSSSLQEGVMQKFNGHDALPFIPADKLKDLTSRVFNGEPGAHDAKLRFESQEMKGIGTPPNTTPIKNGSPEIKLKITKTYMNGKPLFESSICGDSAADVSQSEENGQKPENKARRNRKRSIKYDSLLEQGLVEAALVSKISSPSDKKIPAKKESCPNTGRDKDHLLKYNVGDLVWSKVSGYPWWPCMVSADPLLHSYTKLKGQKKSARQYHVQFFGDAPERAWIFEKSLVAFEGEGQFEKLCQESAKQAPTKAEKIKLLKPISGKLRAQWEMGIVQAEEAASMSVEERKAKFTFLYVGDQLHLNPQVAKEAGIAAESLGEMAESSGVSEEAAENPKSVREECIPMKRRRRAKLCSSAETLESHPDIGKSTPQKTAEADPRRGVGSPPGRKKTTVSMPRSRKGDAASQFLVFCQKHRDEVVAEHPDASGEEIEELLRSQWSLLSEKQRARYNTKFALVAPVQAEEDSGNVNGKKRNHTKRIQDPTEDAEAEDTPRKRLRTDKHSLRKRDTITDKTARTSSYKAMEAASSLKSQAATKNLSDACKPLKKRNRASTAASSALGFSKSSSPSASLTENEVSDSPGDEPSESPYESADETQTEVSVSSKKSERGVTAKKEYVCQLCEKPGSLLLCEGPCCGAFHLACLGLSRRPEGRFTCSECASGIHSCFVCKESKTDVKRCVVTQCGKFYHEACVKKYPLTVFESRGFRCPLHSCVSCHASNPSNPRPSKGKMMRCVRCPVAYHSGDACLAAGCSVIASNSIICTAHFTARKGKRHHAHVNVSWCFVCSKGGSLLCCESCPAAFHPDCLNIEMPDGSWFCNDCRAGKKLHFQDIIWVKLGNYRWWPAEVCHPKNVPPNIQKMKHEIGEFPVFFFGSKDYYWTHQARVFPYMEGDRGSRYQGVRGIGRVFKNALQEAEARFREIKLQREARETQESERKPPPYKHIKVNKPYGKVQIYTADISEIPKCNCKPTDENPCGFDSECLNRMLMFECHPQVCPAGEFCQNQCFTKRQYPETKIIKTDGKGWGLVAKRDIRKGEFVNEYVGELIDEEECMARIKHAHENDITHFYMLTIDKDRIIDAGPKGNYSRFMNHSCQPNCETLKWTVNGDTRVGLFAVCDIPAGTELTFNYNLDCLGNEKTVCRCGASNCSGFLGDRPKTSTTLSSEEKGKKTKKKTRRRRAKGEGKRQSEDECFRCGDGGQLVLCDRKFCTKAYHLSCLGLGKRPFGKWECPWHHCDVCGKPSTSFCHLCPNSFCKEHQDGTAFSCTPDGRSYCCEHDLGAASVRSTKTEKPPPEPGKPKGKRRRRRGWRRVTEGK
The assay is classed as biochemical.

For assay [6], the target named is Bifunctional protein GlmU (Mycobacterium tuberculosis, UniProt P9WMN3). Briefly: Inhibitors of Mycobacterial Glucosamine-1-phosphate acetyl transferase (GlmU). Secondary screen. Further details: species or system Mycobacterium tuberculosis H37Rv.
In assay [7] the target is Heat shock protein HSP 90-alpha (Homo sapiens, UniProt P07900). Kind of assay: Luminescence-based dose response biochemical high throughput screening assay for inhibitors of the Heat Shock Protein 90 (HSP90). [Related pubchem assays: 1831 (Summary AID.), 1846 (Confirmation screen.), 1789 (Primary screen.)].
Assay [8] addresses FAD-linked sulfhydryl oxidase ALR (Homo sapiens, UniProt P55789). Kind of assay: ALR-catalysed DTT oxidation blockers – biochemical, H2O2 detection, luminescence, cherry-pick, dose response (AID 493248).
Assay [9] in a line: CCR5-tropic HIV-1 fusion blockers – cell-based, CCR5-tropic Env, dose response (AID 2279). It is filed as functional.
Assay [10] deals with T4, Low molecular weight phosphotyrosine protein phosphatase (Homo sapiens, UniProt P24666).
T4 sequence (P24666 whole entry): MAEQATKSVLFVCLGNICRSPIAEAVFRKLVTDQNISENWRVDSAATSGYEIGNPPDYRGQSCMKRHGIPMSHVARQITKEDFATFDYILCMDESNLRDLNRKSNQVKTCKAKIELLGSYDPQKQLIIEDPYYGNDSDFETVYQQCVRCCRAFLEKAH
Kind of assay: inhibition of LMPTP-A enzymatic activity – biochemical, OMFP substrate, fluorescence intensity, set 2, dose response (AID 743307). It is filed as functional.

Assay [11] addresses T4, Low molecular weight phosphotyrosine protein phosphatase. Briefly: inhibition of human LMPTP enzyme activity – biochemical, absorbance, pNPP substrate, LMPTP-A isoform, set 2, orthogonal assay, dose response (AID 743308). The assay is classed as functional.

Calls of active or inactive are those of the source. A value given as a limit tells only on which side of the number the result lay.

Bifunctional protein GlmU, sequence (P9WMN3 whole entry): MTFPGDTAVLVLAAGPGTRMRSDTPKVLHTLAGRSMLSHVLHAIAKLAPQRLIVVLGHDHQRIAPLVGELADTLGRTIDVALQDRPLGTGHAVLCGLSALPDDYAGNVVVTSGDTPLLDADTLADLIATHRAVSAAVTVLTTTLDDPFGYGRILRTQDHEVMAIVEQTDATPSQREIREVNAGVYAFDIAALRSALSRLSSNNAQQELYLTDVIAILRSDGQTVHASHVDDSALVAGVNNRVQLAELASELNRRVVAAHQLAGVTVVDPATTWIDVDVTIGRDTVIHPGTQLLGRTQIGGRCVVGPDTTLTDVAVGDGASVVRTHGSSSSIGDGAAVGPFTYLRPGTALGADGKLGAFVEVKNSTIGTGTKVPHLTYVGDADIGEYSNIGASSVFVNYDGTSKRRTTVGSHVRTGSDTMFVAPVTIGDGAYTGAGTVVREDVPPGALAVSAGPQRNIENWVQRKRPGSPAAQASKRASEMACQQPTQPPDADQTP
FAD-linked sulfhydryl oxidase ALR, sequence (P55789 whole entry, the tested form may be a part): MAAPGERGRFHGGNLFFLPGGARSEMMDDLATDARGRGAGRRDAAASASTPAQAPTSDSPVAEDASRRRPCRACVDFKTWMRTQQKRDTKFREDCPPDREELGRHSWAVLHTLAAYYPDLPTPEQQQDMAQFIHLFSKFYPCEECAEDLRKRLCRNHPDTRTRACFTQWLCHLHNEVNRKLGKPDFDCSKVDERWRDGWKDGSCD
DNA damage-inducible transcript 3 protein, sequence (P35639 whole entry): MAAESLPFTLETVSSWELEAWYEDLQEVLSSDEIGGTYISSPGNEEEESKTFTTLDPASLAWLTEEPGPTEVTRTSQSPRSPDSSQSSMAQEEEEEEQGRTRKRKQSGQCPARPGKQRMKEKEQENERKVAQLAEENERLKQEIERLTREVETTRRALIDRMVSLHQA
Large T antigen, sequence (P03070 whole entry): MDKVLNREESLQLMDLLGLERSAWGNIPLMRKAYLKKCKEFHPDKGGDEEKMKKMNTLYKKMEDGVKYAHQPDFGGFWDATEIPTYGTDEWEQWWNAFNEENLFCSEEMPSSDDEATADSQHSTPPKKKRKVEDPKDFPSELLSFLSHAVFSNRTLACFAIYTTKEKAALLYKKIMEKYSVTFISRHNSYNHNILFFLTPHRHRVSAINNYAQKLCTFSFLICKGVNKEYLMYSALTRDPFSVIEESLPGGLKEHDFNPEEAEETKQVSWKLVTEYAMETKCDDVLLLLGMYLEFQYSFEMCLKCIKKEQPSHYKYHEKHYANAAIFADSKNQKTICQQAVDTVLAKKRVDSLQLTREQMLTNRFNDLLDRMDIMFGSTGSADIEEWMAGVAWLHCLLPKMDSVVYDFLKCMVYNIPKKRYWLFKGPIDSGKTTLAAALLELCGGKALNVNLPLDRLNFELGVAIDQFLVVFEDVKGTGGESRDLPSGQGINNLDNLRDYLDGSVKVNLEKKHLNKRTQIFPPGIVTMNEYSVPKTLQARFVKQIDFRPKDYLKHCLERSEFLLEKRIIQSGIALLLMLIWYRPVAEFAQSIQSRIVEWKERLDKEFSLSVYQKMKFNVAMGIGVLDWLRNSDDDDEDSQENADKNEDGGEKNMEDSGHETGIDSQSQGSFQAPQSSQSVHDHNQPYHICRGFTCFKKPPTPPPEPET

One may read the IC50 as the concentration that inhibits the measured activity by half. On to `CCOc1ccc(/C=C/C2=Cc3c(sc(NC(=O)CSc4n[nH]c(N)n4)c3C#N)C(C)(C)C2)cc1`, for which the CC50 in assay [1] is 8.74 µM (active). Also, in [2], the IC50 was > 100 µM (active). Further, the “Absolute IC50 (CHOP)” value in assay [3] was < 10 µM.
For the compound `CCOC(=O)COc1ccc(C2NC(C(=O)O)CS2)cc1` (stereo not drawn), the half-inhibitory concentration (IC50) in assay [4] is > 100 µM (not active).
In general, AC50 refers to the midpoint of the concentration-response curve, whichever way the signal moves. In the case of `Cc1c(Br)c(=O)oc2c(Br)c(O)c(O)cc12`, the concentration for half-maximal inhibition (IC50) at Large T antigen is 41.2 µM (active); in [6] it was 55.4 µM (active). In addition, the figures for the concentration at half-maximal activity (AC50) (on Caspase-6; in assay [5]) were 19.5 µM (active) and 10.3 µM (active), respectively.
Consider `COc1cc(/C=N/Nc2ccc(Cl)c(C(=O)O)c2)ccc1OC(=O)c1ccccc1F`, for which the half-inhibitory concentration (IC50) is 1.06 µM (active) in assay [7] and 4.45 µM (active) in assay [9]. Further, the half-maximal activity concentration (AC50) in [8] is 5.62 µM (active).
Consider `c1ccc(-c2nc(NCCCN3CCOCC3)c3ccccc3n2)cc1`, for which the figures for the IC50 in [10] and in [11] were 22.5 µM (inactive) and 48.8 µM (inactive), respectively.
